# Bridge positions count the residues as written; N and C are the ends. Square brackets hold non-standard residues; d marks the D form. Peptide text beside a SMILES is read from it. * marks the point of attachment. ξ: configuration not given here. X2 = O=C(O)CN1CCN(CC(=O)O)CCN(CC(=O)NCCOCCOCCOCCOCCOCCOCCOCCOCC(=O)*)CCN(CC(=O)O)CC1; X4 = O=C(O)CN1CCN(CC(=O)O)CCN(CC(=O)N[C@H]2CC[C@H](CC(=O)*)CC2)CCN(CC(=O)O)CC1; DOTA = O=C(O)CN1CCN(CC(=O)O)CCN(CC(=O)*)CCN(CC(=O)O)CC1; Trp(5-OMe) = COc1ccc2[nH]cc(C[C@H](N)C(=O)O)c2c1; Trp(7-aza) = N[C@@H](Cc1c[nH]c2ncccc12)C(=O)O; 1Nal = N[C@@H](Cc1cccc2ccccc12)C(=O)O; 2Nal = N[C@@H](Cc1ccc2ccccc2c1)C(=O)O; ξW = NC(Cc1c[nH]c2ccccc12)C(=O)O; Octanoyl = CCCCCCCC(=O)*; Dab = NCC[C@H](N)C(=O)O; Hexanoyl = CCCCCC(=O)*; ξC = NC(CS)C(=O)O
# Target: T1, human DLL3 (Homo sapiens, UniProt Q9NYJ7)
# T1 sequence (Q9NYJ7 27-618): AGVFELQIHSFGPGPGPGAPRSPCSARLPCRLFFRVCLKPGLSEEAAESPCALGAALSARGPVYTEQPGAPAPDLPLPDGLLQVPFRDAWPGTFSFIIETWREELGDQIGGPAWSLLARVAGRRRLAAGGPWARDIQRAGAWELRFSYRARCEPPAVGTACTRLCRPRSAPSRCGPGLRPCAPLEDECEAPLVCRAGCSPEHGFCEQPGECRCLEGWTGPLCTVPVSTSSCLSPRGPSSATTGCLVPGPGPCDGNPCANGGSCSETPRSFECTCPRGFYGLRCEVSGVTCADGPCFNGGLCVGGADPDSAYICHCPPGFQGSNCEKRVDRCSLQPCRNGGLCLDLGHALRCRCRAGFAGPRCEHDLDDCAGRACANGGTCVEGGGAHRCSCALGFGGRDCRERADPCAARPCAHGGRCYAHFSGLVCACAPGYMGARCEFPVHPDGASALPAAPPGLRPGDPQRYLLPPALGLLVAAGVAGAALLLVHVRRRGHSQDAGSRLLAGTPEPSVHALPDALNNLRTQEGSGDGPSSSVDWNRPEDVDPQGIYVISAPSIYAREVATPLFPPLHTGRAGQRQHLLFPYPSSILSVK
# Test: Affinity determination by Surface Plasmon Resonance (SPR)
# Assay type: binding
# Settings: 25° C., biotinylated human DLL3 immobilized on streptavidin sensor chip, 1:1 binding model; read-out: SPR KD
# Experimental: SPR studies were performed on the compounds disclosed herein using the following protocol.
# Biotinylated target ligand human DLL3 was immobilized on a streptavidin sensor chip. A reference surface was set up for nonspecific binding and refractive index changes. For analysis of the kinetics of interactions, varying concentrations of samples were injected at a flow rate of 100 μL/minute using running buffer containing 20 mM phosphate buffer with 2.7 mM KCl, 137 mM NaCl, 0.05% Surfactant P20 and 2% DMSO. Sensorgram curves were fitted with 1:1 binding model, and affinity and kinetic parameters were obtained using Biacore Insight evaluation 4.0. software.
row,Compound,Kd
1,"CC[C@H](C)[C@H](NC(=O)[C@@H](NC(=O)[C@H](Cc1c[nH]c2ccccc12)NC(C)=O)[C@@H](C)O)C(=O)N[C@H]1CSSC[C@@H](C(=O)N[C@@H](Cc2c[nH]c3ccccc23)C(=O)N2CCC[C@H]2C(=O)N[C@H](CCCCNC(=O)C[C@H]2CC[C@H](NC(=O)CN3CCN(CC(=O)O)CCN(CC(=O)O)CCN(CC(=O)O)CC3)CC2)C(N)=O)NC(=O)[C@H](CC(=O)O)NC(=O)[C@H](Cc2cnc[nH]2)NC(=O)[C@H](Cc2c[nH]c3ccccc23)NC(=O)[C@H](CC(N)=O)NC(=O)[C@H](CC(N)=O)NC1=O [compound 48, Ac-W-T-I-C(3)-N-N-W-H-D-C(3)-W-P-(D-Lys)-CyHex-DOTA-NH2] (Ac-WTICNNWHDCWP[dK](X4)-NH2; disulfide 4-10)",0.001 to 0.01 µM
2,"CC[C@H](C)[C@H](NC(=O)[C@@H](NC(=O)[C@H](Cc1c[nH]c2ccccc12)NC(C)=O)[C@@H](C)O)C(=O)N[C@H]1CSSC[C@@H](C(=O)N[C@@H](Cc2c[nH]c3ccccc23)C(=O)N2CCC[C@H]2C(=O)N[C@H](CCCCNC(=O)CN2CCN(CC(=O)O)CCN(CC(=O)O)CCN(CC(=O)O)CC2)C(N)=O)NC(=O)[C@H](CC(=O)O)NC(=O)[C@H](Cc2cnc[nH]2)NC(=O)[C@H](Cc2cccc3ccccc23)NC(=O)[C@H](CC(N)=O)NC(=O)[C@H](CC(N)=O)NC1=O [compound 74, Ac-W-T-I-C(3)-N-N-(1Nal)-H-D-C(3)-W-P-[D-Lys(DOTA)]-NH2] (Ac-WTICNN[1Nal]HDCWP[dK](DOTA)-NH2; disulfide 4-10)",0.001 to 0.01 µM
3,"CC[C@H](C)[C@H](NC(=O)[C@@H](NC(=O)[C@H](Cc1c[nH]c2ccccc12)NC(C)=O)[C@@H](C)O)C(=O)N[C@H]1CSSC[C@@H](C(=O)N[C@@H](Cc2cccc3ccccc23)C(=O)N2CCC[C@H]2C(=O)N[C@H](CCCCNC(=O)CN2CCN(CC(=O)O)CCN(CC(=O)O)CCN(CC(=O)O)CC2)C(N)=O)NC(=O)[C@H](CC(=O)O)NC(=O)[C@H](Cc2cnc[nH]2)NC(=O)[C@H](Cc2c[nH]c3ccccc23)NC(=O)[C@H](CC(N)=O)NC(=O)[C@H](CC(N)=O)NC1=O [compound 76, Ac-W-T-I-C(3)-N-N-W-H-D-C(3)-(1Nal)-P-[D-Lys(DOTA)]-NH2] (Ac-WTICNNWHDC[1Nal]P[dK](DOTA)-NH2; disulfide 4-10)",0.001 to 0.01 µM
4,"CC[C@H](C)[C@H](NC(=O)[C@@H](NC(=O)[C@H](Cc1c[nH]c2ccccc12)NC(C)=O)[C@@H](C)O)C(=O)N[C@H]1CSSC[C@@H](C(=O)N[C@@H](Cc2ccc3ccccc3c2)C(=O)N2CCC[C@H]2C(=O)N[C@H](CCCCNC(=O)CN2CCN(CC(=O)O)CCN(CC(=O)O)CCN(CC(=O)O)CC2)C(N)=O)NC(=O)[C@H](CC(=O)O)NC(=O)[C@H](Cc2cnc[nH]2)NC(=O)[C@H](Cc2c[nH]c3ccccc23)NC(=O)[C@H](CC(N)=O)NC(=O)[C@H](CC(N)=O)NC1=O [compound 77, Ac-W-T-I-C(3)-N-N-W-H-D-C(3)-(2Nal)-P-[D-Lys(DOTA)]-NH2] (Ac-WTICNNWHDC[2Nal]P[dK](DOTA)-NH2; disulfide 4-10)",0.01 to 0.1 µM
5,"CC[C@H](C)[C@H](NC(=O)[C@@H](NC(=O)[C@H](Cc1c[nH]c2ccccc12)NC(C)=O)[C@@H](C)O)C(=O)N[C@H]1CSSCC(C(=O)N[C@@H](Cc2c[nH]c3ccccc23)C(=O)N2CCC[C@H]2C(=O)N[C@H](CCCCNC(=O)CN2CCN(CC(=O)O)CCN(CC(=O)O)CCN(CC(=O)O)CC2)C(N)=O)NC(=O)[C@H](CC(=O)O)NC(=O)[C@H](Cc2cnc[nH]2)NC(=O)[C@H](Cc2c[nH]c3ncccc23)NC(=O)[C@H](CC(N)=O)NC(=O)[C@H](CC(N)=O)NC1=O (stereo partly drawn) [compound 85, Ac-W-T-I-C(3)-N-N-(7Aza-W)-H-D-C(3)-W-P-[D-Lys(DOTA)]-NH2] (Ac-WTICNN[Trp(7-aza)]HD[ξC]WP[dK](DOTA)-NH2; disulfide 4-10)",0.001 to 0.01 µM
6,"CC[C@H](C)[C@H](NC(=O)[C@@H](NC(=O)[C@H](Cc1c[nH]c2ccccc12)NC(C)=O)[C@@H](C)O)C(=O)N[C@H]1CSSC[C@@H](C(=O)N[C@@H](Cc2c[nH]c3ccccc23)C(=O)N2CCC[C@H]2C(=O)N[C@H](CCCCNC(=O)CN2CCN(CC(=O)O)CCN(CC(=O)O)CCN(CC(=O)O)CC2)C(N)=O)NC(=O)[C@H](CC(=O)O)NC(=O)[C@H](Cc2cnc[nH]2)NC(=O)[C@H](Cc2c[nH]c3ccc(OC)cc23)NC(=O)[C@H](CC(N)=O)NC(=O)[C@H](CC(N)=O)NC1=O [compound 86, Ac-W-T-I-C(3)-N-N-(5Ome-W)-H-D-C(3)-W-P-[D-Lys(DOTA)]-NH2] (Ac-WTICNN[Trp(5-OMe)]HDCWP[dK](DOTA)-NH2; disulfide 4-10)",0.01 to 0.1 µM
7,"CC[C@H](C)[C@H](NC(=O)[C@@H](NC(=O)[C@H](Cc1c[nH]c2ccccc12)NC(C)=O)[C@@H](C)O)C(=O)N[C@H]1CSSC[C@@H](C(=O)N[C@@H](Cc2c[nH]c3ncccc23)C(=O)N2CCC[C@H]2C(=O)N[C@H](CCCCNC(=O)CN2CCN(CC(=O)O)CCN(CC(=O)O)CCN(CC(=O)O)CC2)C(N)=O)NC(=O)[C@H](CC(=O)O)NC(=O)[C@H](Cc2cnc[nH]2)NC(=O)[C@H](Cc2c[nH]c3ccccc23)NC(=O)[C@H](CC(N)=O)NC(=O)[C@H](CC(N)=O)NC1=O [compound 87, Ac-W-T-I-C(3)-N-N-W-H-D-C(3)-(7Aza-W)-P-[D-Lys(DOTA)]-NH2] (Ac-WTICNNWHDC[Trp(7-aza)]P[dK](DOTA)-NH2; disulfide 4-10)",0.01 to 0.1 µM
8,"CC[C@H](C)[C@H](NC(=O)[C@@H](NC(=O)[C@H](Cc1c[nH]c2ccccc12)NC(C)=O)[C@@H](C)O)C(=O)N[C@H]1CSSC[C@@H](C(=O)N[C@@H](Cc2c[nH]c3ccc(OC)cc23)C(=O)N2CCC[C@H]2C(=O)N[C@H](CCCCNC(=O)CN2CCN(CC(=O)O)CCN(CC(=O)O)CCN(CC(=O)O)CC2)C(N)=O)NC(=O)[C@H](CC(=O)O)NC(=O)[C@H](Cc2cnc[nH]2)NC(=O)[C@H](Cc2c[nH]c3ccccc23)NC(=O)[C@H](CC(N)=O)NC(=O)[C@H](CC(N)=O)NC1=O [compound 88, Ac-W-T-I-C(3)-N-N-W-H-D-C(3)-(5Ome-W)-P-[D-Lys(DOTA)]-NH2] (Ac-WTICNNWHDC[Trp(5-OMe)]P[dK](DOTA)-NH2; disulfide 4-10)",0.1 to 0.3 µM
9,"CC[C@H](C)[C@H](NC(=O)[C@@H](NC(=O)[C@H](Cc1c[nH]c2ccccc12)NC(C)=O)[C@@H](C)O)C(=O)N[C@H]1CSSC[C@@H](C(=O)NC(Cc2c[nH]c3ccccc23)C(=O)N2CCC[C@H]2C(=O)N[C@H](CCCCNC(=O)COCCOCCOCCOCCOCCOCCOCCOCCNC(=O)CN2CCN(CC(=O)O)CCN(CC(=O)O)CCN(CC(=O)O)CC2)C(N)=O)NC(=O)[C@H](CC(=O)O)NC(=O)[C@H](Cc2cnc[nH]2)NC(=O)[C@H](Cc2c[nH]c3ccccc23)NC(=O)[C@H](CC(N)=O)NC(=O)[C@H](CC(N)=O)NC1=O (stereo partly drawn) [compound 89, Ac-W-T-I-C(3)-N-N-W-H-D-C(3)-W-P-(D-Lys)-PEG8-DOTA-NH2] (Ac-WTICNNWHDC[ξW]P[dK](X2)-NH2; disulfide 4-10)",0.001 to 0.01 µM
10,"CCCCCC(=O)NCC[C@@H]1NC(=O)[C@@H](NC(=O)[C@@H](NC(=O)[C@@H](NC(=O)[C@H](Cc2c[nH]c3ccccc23)NC(C)=O)[C@@H](C)O)[C@@H](C)CC)CSSC[C@@H](C(=O)N[C@@H](Cc2c[nH]c3ccccc23)C(=O)N2CCC[C@H]2C(=O)N[C@H](CCCCNC(=O)CN2CCN(CC(=O)O)CCN(CC(=O)O)CCN(CC(=O)O)CC2)C(N)=O)NC(=O)[C@H](CC(=O)O)NC(=O)[C@H](Cc2cnc[nH]2)NC(=O)[C@H](Cc2c[nH]c3ccccc23)NC(=O)[C@H](CC(N)=O)NC1=O [compound 90, Ac-W-T-I-C(3)-(DAB-4-NHCOC5H11)-N-W-H-D-C(3)-W-P-[D-Lys(DOTA)]-NH2] (Ac-WTIC[Dab](Hexanoyl)NWHDCWP[dK](DOTA)-NH2; disulfide 4-10)",0.01 to 0.1 µM
11,"CCCCCCCC(=O)NCC[C@@H]1NC(=O)[C@@H](NC(=O)[C@@H](NC(=O)[C@@H](NC(=O)[C@H](Cc2c[nH]c3ccccc23)NC(C)=O)[C@@H](C)O)[C@@H](C)CC)CSSC[C@@H](C(=O)N[C@@H](Cc2c[nH]c3ccccc23)C(=O)N2CCC[C@H]2C(=O)N[C@H](CCCCNC(=O)CN2CCN(CC(=O)O)CCN(CC(=O)O)CCN(CC(=O)O)CC2)C(N)=O)NC(=O)[C@H](CC(=O)O)NC(=O)[C@H](Cc2cnc[nH]2)NC(=O)[C@H](Cc2c[nH]c3ccccc23)NC(=O)[C@H](CC(N)=O)NC1=O [compound 91, Ac-W-T-I-C(3)-(DAB-4-NHCOC7H15)-N-W-H-D-C(3)-W-P-[D-Lys(DOTA)]-NH2] (Ac-WTIC[Dab](Octanoyl)NWHDCWP[dK](DOTA)-NH2; disulfide 4-10)",0.01 to 0.1 µM
12,"CCCCCC(=O)NCC[C@@H]1NC(=O)[C@H](Cc2c[nH]c3ccccc23)NC(=O)[C@H](CC(N)=O)NC(=O)[C@H](CC(N)=O)NC(=O)[C@@H](NC(=O)[C@@H](NC(=O)[C@@H](NC(=O)[C@H](Cc2c[nH]c3ccccc23)NC(C)=O)[C@@H](C)O)[C@@H](C)CC)CSSC[C@@H](C(=O)N[C@@H](Cc2c[nH]c3ccccc23)C(=O)N2CCC[C@H]2C(=O)N[C@H](CCCCNC(=O)CN2CCN(CC(=O)O)CCN(CC(=O)O)CCN(CC(=O)O)CC2)C(N)=O)NC(=O)[C@H](CC(=O)O)NC1=O [compound 92, Ac-W-T-I-C(3)-N-N-W-(DAB-4-NHCOC5H11)-D-C(3)-W-P-[D-Lys(DOTA)]-NH2] (Ac-WTICNNW[Dab](Hexanoyl)DCWP[dK](DOTA)-NH2; disulfide 4-10)",0.01 to 0.1 µM

# Source: patent US20250011368A1, “DLL3 TARGETING PEPTIDES AND CONSTRUCTS THEREOF” (MARIANA ONCOLOGY INC., priority 2023, published 2025)
